# Experimental data taken from patent US20150140123A1, “Protein expression analyses for identifying genotoxic compounds” (Merck Patent GmbH, priority 2012, published 2015).
# Read-outs that look alike come from different tables or passages of the source.
# Assays:
# HepG2 cells = experiment: High content imaging cytotoxicity parameters: selected cell count per valid field (SCC) and CMFDA cytoplasm average intensity
# Description: (§1) HepG2 cells (Order No. HB-8065, Lot. 58483209, ATCC, Manassas, USA) were cultured in DMEM/F12 with L-Glutamine and 15 mM Hepes supplemented with 10% (v/v) FBS, 1% (v/v) penicillin (10 kU/ml)/streptomycin (10 mg/ml) solution, 0.1% (v/v) gentamicin (50 mg/ml), and 1 mM sodium pyruvate at 37° C. and 5% CO2 in culture flasks. Depending on the experiment, an appropriate number of cells were seeded onto plates after detaching of the cells using trypsin and cells were cultured at 37° C. and 5% CO2 for 24 h prior to treatment. All experiments were performed three times with cells of passages 4-20.
# (§2) Cells were seeded onto black Poly-D-Lysin coated 96-well-plates (BD Biocoat, Franklin Lakes, USA) (0.02×10^6 cells/well) and left 24 h for adherence and then treated with test compounds at a maximum concentration of 1 mM which is recommended by the ICH S2(R1) guideline (EMA, 2011). For each compound, nine concentrations were tested with 2-fold serial dilutions. DMSO 1% (v/v) served as vehicle control for the experiments. The treatment procedure was different for direct-genotoxic and pro-genotoxic compounds. The treatment for direct genotoxic compounds was ongoing and was repeated daily over 48 h. Pro-genotoxic compounds were incubated for 6 h together with metabolic activation system (to limit the cytotoxic effect of the S9-mixture). After this period, cells were washed with cell media followed by 18-repeated daily over 48 h. The metabolic activation system used consisted of the following components and concentrations: 8 mM MgCl2, 32.8 mM KCl, 12 mM NADPH, 124 mM phosphate buffer and 2500 pmol/ml cytochrome P450 (CYP) content in the pre-mixture corresponding to 2.4 mM MgCl2, 9.8 mM KCl, 3.6 mM NADPH, 37.2 mM phosphate buffer, and 750 pmol/ml CYP as final concentrations after dilution 1:3.33 with cell culture media.
# After treatment, cells were rinsed with PBS (Gibco Invitrogen, Karlsruhe, Germany), and then stained with 10 μM CellTracker Green 5-Chloromethylfluorescein Diacetate (CMFDA) (Invitrogen, Karlsruhe, Germany) in cell culture media for 30 min. CMFDA is per se non-fluorescent and is hydrolyzed by esterase in viable cells to a fluorescent-dye. The reaction with thiol groups leads to a cell-impermeable fluorescent-dye-adduct. The esterase activity can be used as an indicator for viability of cells (Papadopoulos et al., 1994, J Immunol Methods 177, 101-11). Afterwards, cells were washed with PBS and fixed with 3.7% Formaldehyde (Sigma-Aldrich, Taufkirchen, Germany) in PBS for 20 min. After that, cells were washed with PBS and blocked and permeabilized with 2% donkey serum (Millipore, Schwalbach, Germany) and 0.25% Triton X-100 (Sigma-Aldrich, Taufkirchen, Germany) in PBS for 30 min. Primary antibodies were diluted in Blocking/Permeabilization solution to final concentrations of 4 μg/ml anti-p-Chk1 (Ser345) goat polyclonal antibody IgG (santa cruz, Santa Cruz, USA), 4 μg/ml anti-p-ATM (Ser1981) mouse monoclonal antibody IgG1K (Millipore, Schwalbach, Germany) and added to the cells. After incubation for 16-18 h, cells were washed with 0.05% Tween 20 (Calbiochem, Darmstadt, Germany) in PBS, and the secondary antibody/16 μM Hoechst staining solution Blocking/Permeabilization solution was added. Secondary antibodies were diluted 1:400 (Alexa Fluor 555 donkey anti-goat, Alexa Fluor 647 donkey anti-mouse, Invitrogen, Karlsruhe, Germany). After an incubation of 1 h, followed by two additional washing steps with 0.05% Tween 20, cells were washed with PBS and finally PBS was added and cells were measured.
# Image acquisition was performed on the ArrayScan VTI HCS Reader (Cellomics, Pittsburgh, USA) using a 20× objective. To detect enough cells, 50 images starting at the middle of each well were gathered.
# • Channel 1: selected cell count per valid field • Channel 2: CMFDA cytoplasm average intensity • Channel 3: p-Chk1 (Ser345) nucleus average intensity • Channel 4: p-ATM (Ser1981) nucleus average intensity
# [1] = system: p-p53 (Ser15), p21, p-H2A.X (Ser139), p-ATM (Ser1981), p-Chk1 (Ser345) in HepG2 cells
# Description: as §1, §2
# Two different staining procedures were performed for each compound with and without metabolic activation system:
# After treatment, cells were rinsed with PBS (Gibco Invitrogen, Karlsruhe, Germany), and then fixed with 3.7% formaldehyde (Sigma-Aldrich, Taufkirchen, Germany) in PBS for 20 min. After an additional washing step with PBS, cells were blocked and permeabilized with 2% donkey serum (Millipore, Schwalbach, Germany) and 0.25% Triton X-100 (Sigma-Aldrich, Taufkirchen, Germany) in PBS for 30 min. Primary antibodies were diluted to final concentrations of 2 μg/ml anti-p-p53 (Ser15) rabbit monoclonal antibody IgG (Invitrogen, Karlsruhe, Germany), 0.8 μg/ml anti-p21 goat polyclonal antibody IgG, (R&D systems, Minneapolis, USA); 4 μg/ml anti-p-Histone H2A.X (Ser139) mouse monoclonal antibody IgG1 (Millipore, Schwalbach, Germany) in Blocking/Permeabilization solution were added afterwards. After incubation for 16-18 h, cells were washed with 0.05% Tween 20 (Calbiochem, Darmstadt, Germany) in PBS and the secondary antibody/16 μM Hoechst staining solution in Blocking/Permeabilization solution was added. Secondary antibodies were diluted 1:400 (Alexa Fluor 488 donkey anti-rabbit, Alexa Fluor 555 donkey anti-goat, Alexa Fluor 647 donkey anti-mouse, Invitrogen, Karlsruhe, Germany). After an incubation of 1 h, followed by two additional washing steps with 0.05% Tween 20, cells were washed with PBS and finally PBS was added and cells were measured.
# After treatment, cells were rinsed with PBS (Gibco Invitrogen, Karlsruhe, Germany), and then stained with 10 μM CellTracker Green 5-Chloromethylfluorescein Diacetate (CMFDA) (Invitrogen, Karlsruhe, Germany) in cell culture media for 30 min. CMFDA is per se non-fluorescent and is hydrolyzed by esterase in viable cells to a fluorescent-dye. The reaction with thiol groups leads to a cell-impermeable fluorescent-dye-adduct. The esterase activity can be used as an indicator for viability of cells (Papadopoulos et al., 1994, J Immunol Methods 177, 101-11). Afterwards, cells were washed with PBS and fixed with 3.7% Formaldehyde (Sigma-Aldrich, Taufkirchen, Germany) in PBS for 20 min.
# p-ATM (Ser1981) = experiment: High content imaging of p-ATM (Ser1981) nucleus average intensity; assay type: cell-based, human; conditions: HepG2 cells, 48 h; fold-change over vehicle control, threshold 1.8
# Description: as §1
# Cells were seeded onto black Poly-D-Lysin coated 96-well-plates (BD Biocoat, Franklin Lakes, USA) (0.02×10^6 cells/well) and left 24 h for adherence and then treated with test compounds at a maximum concentration of 1 mM which is recommended by the ICH S2(R1) guideline (EMA, 2011). […]
# After treatment, cells were rinsed with PBS (Gibco Invitrogen, Karlsruhe, Germany), and then stained with 10 μM CellTracker Green 5-Chloromethylfluorescein Diacetate (CMFDA) (Invitrogen, Karlsruhe, Germany) in cell culture media for 30 min. […] After an incubation of 1 h, followed by two additional washing steps with 0.05% Tween 20, cells were washed with PBS and finally PBS was added and cells were measured.
# Image acquisition was performed on the ArrayScan VTI HCS Reader (Cellomics, Pittsburgh, USA) using a 20× objective. […]
# [2] = HepG2 cells, 48 h, CMFDA cytoplasm average intensity, with rat liver S9 (+S9)
# [3] = HepG2 cells, 48 h, CMFDA cytoplasm average intensity, without metabolic activation (−S9)
# [4] = HepG2 cells, 48 h, selected cell count per valid field, with rat liver S9 (+S9)
# [5] = HepG2 cells, 48 h, selected cell count per valid field, without metabolic activation (−S9)
# [6] = HepG2 cells ± S9, 48 h, positive if at least one of five proteins shows fold-change above threshold (2.1 p-Chk1, p-H2A.X; 1.8 p21, p-ATM; 1.9 p-p53)
compound,measurement,setting,value
CCN(N=O)C(N)=O [Ethylnitrosourea],CMFDA +S9 highest conc. <50% cytotox. over control,HepG2 cells; [2],1000 µM
same,CMFDA −S9 highest conc. <50% cytotox. over control,HepG2 cells; [3],1000 µM
same,SCC +S9 highest conc. <50% cytotox. over control,HepG2 cells; [4],1000 µM
same,SCC −S9 highest conc. <50% cytotox. over control,HepG2 cells; [5],1000 µM
same,result for the five protein markers tested (compound set as positive or negative),[1]; [6],no positive result
O=[N+]([O-])c1ccc(O)cc1 [p-Nitrophenol],result for the five protein markers tested (compound set as positive or negative),[1],positive
c1ccc2c(c1)ccc1ccccc12 [Phenanthrene],CMFDA +S9 highest conc. <50% cytotox. over control,"HepG2 cells; human, 48 h",1000 µM
same,CMFDA −S9 highest conc. <50% cytotox. over control,"HepG2 cells; human, 48 h",1000 µM
same,SCC +S9 highest conc. <50% cytotox. over control,"HepG2 cells; human, 48 h",1000 µM
same,SCC −S9 highest conc. <50% cytotox. over control,"HepG2 cells; human, 48 h",1000 µM
same,result for p-ATM (Ser1981),p-ATM (Ser1981),positive
"Cc1ccc(N)cc1N [2,4-diaminotoluene]",CMFDA +S9 highest conc. <50% cytotox. over control,HepG2 cells; [2],1000 µM
same,CMFDA −S9 highest conc. <50% cytotox. over control,HepG2 cells; [3],1000 µM
same,SCC +S9 highest conc. <50% cytotox. over control,HepG2 cells; [4],1000 µM
same,SCC −S9 highest conc. <50% cytotox. over control,HepG2 cells; [5],1000 µM
same,result for the five protein markers tested (compound set as positive or negative),[1]; [6],no positive result
"Oc1ccc(Cl)cc1Cl [2,4-Dichlorophenol]",CMFDA +S9 highest conc. <50% cytotox. over control,HepG2 cells; human,1000 µM
same,CMFDA −S9 highest conc. <50% cytotox. over control,HepG2 cells; human,1000 µM
same,SCC +S9 highest conc. <50% cytotox. over control,HepG2 cells; human,500 µM
same,SCC −S9 highest conc. <50% cytotox. over control,HepG2 cells; human,250 µM
same,result for the five protein markers tested (compound set as positive or negative),[1]; [6],positive
[Cl][Cd][Cl] [Cadmium chloride],CMFDA +S9 highest conc. <50% cytotox. over control,HepG2 cells; [2],62.5 µM
same,CMFDA −S9 highest conc. <50% cytotox. over control,HepG2 cells; [3],62.5 µM
same,SCC +S9 highest conc. <50% cytotox. over control,HepG2 cells; [4],125 µM
same,SCC −S9 highest conc. <50% cytotox. over control,HepG2 cells; [5],31.25 µM
same,result for the five protein markers tested (compound set as positive or negative),[1]; [6],no positive result
CCCOC(=O)c1cc(O)c(O)c(O)c1 [Propyl gallate],CMFDA +S9 highest conc. <50% cytotox. over control,"HepG2 cells; human, 48 h",1000 µM
same,CMFDA −S9 highest conc. <50% cytotox. over control,"HepG2 cells; human, 48 h",1000 µM
same,SCC +S9 highest conc. <50% cytotox. over control,"HepG2 cells; human, 48 h",1000 µM
same,SCC −S9 highest conc. <50% cytotox. over control,"HepG2 cells; human, 48 h",500 µM
same,result for the five protein markers tested (compound set as positive or negative),[1],positive
CN(C)N=O [Dimethylnitrosamine],CMFDA +S9 highest conc. <50% cytotox. over control,HepG2 cells; [2],1000 µM
same,CMFDA −S9 highest conc. <50% cytotox. over control,HepG2 cells; [3],1000 µM
same,SCC +S9 highest conc. <50% cytotox. over control,HepG2 cells; [4],1000 µM
same,SCC −S9 highest conc. <50% cytotox. over control,HepG2 cells; [5],1000 µM
same,result for the five protein markers tested (compound set as positive or negative),[1]; [6],no positive result
C=CCc1ccc(O)c(OC)c1 [Eugenol],CMFDA +S9 highest conc. <50% cytotox. over control,"HepG2 cells; human, 48 h",125 µM
same,CMFDA −S9 highest conc. <50% cytotox. over control,"HepG2 cells; human, 48 h",1000 µM
same,SCC +S9 highest conc. <50% cytotox. over control,"HepG2 cells; human, 48 h",125 µM
same,SCC −S9 highest conc. <50% cytotox. over control,"HepG2 cells; human, 48 h",1000 µM
same,result for the five protein markers tested (compound set as positive or negative),[1],positive
CCCCCl [n-butyl chloride],CMFDA +S9 highest conc. <50% cytotox. over control,HepG2 cells,1000 µM
same,CMFDA −S9 highest conc. <50% cytotox. over control,HepG2 cells,1000 µM
same,SCC +S9 highest conc. <50% cytotox. over control,HepG2 cells,1000 µM
same,SCC −S9 highest conc. <50% cytotox. over control,HepG2 cells,1000 µM
"CCCC(O)C(CC)CO (stereo not shown) [2-Ethyl-1,3-hexanediol]",CMFDA +S9 highest conc. <50% cytotox. over control,"HepG2 cells; human, 48 h",1000 µM
same,CMFDA −S9 highest conc. <50% cytotox. over control,"HepG2 cells; human, 48 h",1000 µM
same,SCC +S9 highest conc. <50% cytotox. over control,"HepG2 cells; human, 48 h",1000 µM
same,SCC −S9 highest conc. <50% cytotox. over control,"HepG2 cells; human, 48 h",1000 µM
Nc1nc[nH]n1 [Amitrole],CMFDA +S9 highest conc. <50% cytotox. over control,"HepG2 cells; human, 48 h",1000 µM
same,CMFDA −S9 highest conc. <50% cytotox. over control,"HepG2 cells; human, 48 h",1000 µM
same,SCC +S9 highest conc. <50% cytotox. over control,"HepG2 cells; human, 48 h",1000 µM
same,SCC −S9 highest conc. <50% cytotox. over control,"HepG2 cells; human, 48 h",1000 µM
CN(C)C(=O)Nc1cccc(C(F)(F)F)c1 [Fluometron],CMFDA +S9 highest conc. <50% cytotox. over control,"HepG2 cells; human, 48 h",1000 µM
same,CMFDA −S9 highest conc. <50% cytotox. over control,"HepG2 cells; human, 48 h",1000 µM
same,SCC +S9 highest conc. <50% cytotox. over control,"HepG2 cells; human, 48 h",1000 µM
same,SCC −S9 highest conc. <50% cytotox. over control,"HepG2 cells; human, 48 h",500 µM
C=CC(=O)OCC [Ethyl acrylate],CMFDA +S9 highest conc. <50% cytotox. over control,HepG2 cells; human,1000 µM
same,CMFDA −S9 highest conc. <50% cytotox. over control,HepG2 cells; human,1000 µM
same,SCC +S9 highest conc. <50% cytotox. over control,HepG2 cells; human,1000 µM
same,SCC −S9 highest conc. <50% cytotox. over control,HepG2 cells; human,1000 µM
